Measured values reported in patent EP4699605A1, “USE OF NOVEL COMPOUND FOR TREATING INTRACTABLE DISEASES” (YJ Cerapeutics Inc., priority 2023, dated 2024).

Legend:
bladder wall = experiment: Bladder hypertrophy (H&E) and collagen content in bladder muscle (Masson's trichrome) after spinal cord injury; type: in vivo, Sprague-Dawley rats
Text: As one indicator of bladder dysfunction, bladder hypertrophy, which was a thicker bladder wall, and changes in collagen content in the bladder muscle were identified. Specifically, a spinal cord injury […] animal model was perfused through the left ventricle, and fixed with 4% paraformaldehyde, and the bladder was extracted, and then embedded in an optimal cutting temperature (OCT) compound, and the tissue was sectioned at a 10 µm thickness using a cryostat. In order to measure the bladder wall thickness, Hematoxylene & Eosin (Abcam) staining was performed according to a manufacturer's protocol, and in order to measure the collagen content in the muscle, Masson's trichrome (Sigma-Aldrich) staining was performed.

inflammatory factors = experiment: Inflammatory factor expression in L4-5 spinal cord of SNI model (RT-PCR, Western blot); type: in vivo, Sprague-Dawley rats; settings: ipsilateral spinal cord tissue, 4 weeks after nerve injury, RT-PCR and Western blot
Method: To be used as a peripheral nerve injury animal model, a sciatic nerve injury (SNI) model was prepared (FIG. 1C). Specifically, 200 to 220 g of male adult Sprague-Dawley rats were anesthetized by intraperitoneal injection of chloral hydrate (500 mg/kg), and then three terminal branches (tibial, common peroneal, and sural nerves) of the right sciatic nerve were approached, and the tibia nerve and the peroneal nerve were tightly ligated with 4-0 silk, and neurectomy was performed at a distal 3 mm position of the ligation site. At this time, a Sham group was a group that exposed only the sciatic nerve without damage.
It was known that when neuropathic pain occurred, the activation of microglia and astrocytes expressed inflammatory factors including cytokines and chemokines to cause excessive excitation of surrounding neurons. Therefore, in order to confirm changes in inflammatory factor expression by YJ102 administration in the SNI animal model 4 weeks after nerve injury, RNA and protein were extracted from L4-5 spinal cord tissue and RT-PCR and Western blot analysis were performed. Specifically, for RT-PCR analysis, RNA was isolated from spinal cord tissue sections using a TRIZOL Reagent (Invitrogen) according to a manual, and 20 µl of the total mixture was prepared by using 1 µg of total RNA, and cDNA was synthesized using MMLV reverse transcriptase (Invitrogen). […]

TRPM7 = experiment: Signaling pathway analysis in SNI model (Western blot): TRPM7 expression; type: in vivo, Sprague-Dawley rats; settings: 4 weeks after nerve injury
Method: To determine through which signaling pathway YJ102 inhibited a neuroinflammatory response, there was analyzed increased expression and activation of histone demethylase JMJD3 and expression changes of factors associated with JAK/STAT3 pathway, mTOR pathway, and TRPM7-mediated pathway, which were known as important regulatory mechanisms and epigenetic regulators mediating the neuroinflammatory response, in the tissues of the SNI animal model 4 weeks after nerve injury.

urothelial cells = experiment: Urothelial cell apoptosis in bladder after SCI (TUNEL, cleaved caspase-3, UPIII Western blot); type: in vivo, Sprague-Dawley rats; settings: day 3 after spinal cord injury
Text: The effect of YJ102 on urothelial cell apoptosis in bladder tissue after spinal cord injury was confirmed by TUNEL staining, and the protein levels of cleaved caspase-3 indicating caspase-3 activation, and UPIII as a urothelial marker were confirmed by Western blot analysis using p75 (Promega), cleaved caspase-3 (Cell signaling technology), and UPIII (Abcam) as primary antibodies. In addition, in order to confirm whether the mechanism of apoptosis was caused by a p75 neurotrophin receptor, which was involved in urothelial apoptosis, the expression level of p75 was confirmed by RT-PCR, Western blot analysis, and immunofluorescence staining. For RT-PCR analysis, the obtained bladder tissue sections were frozen in liquid nitrogen, and ground in a mortar and pestle to be completely lysed, and then RNA was isolated using a TRIZOL Reagent (Invitrogen) according to a manual, and 20 µl of the total mixture was prepared by using 1 µg of total RNA, and cDNA was synthesized using MMLV reverse transcriptase (Invitrogen).

ZO-1 and occludin = experiment: Urothelial tight junction proteins in bladder after SCI (Western blot, immunofluorescence); type: in vivo, Sprague-Dawley rats
Text: When bladder dysfunction occurred due to spinal cord injury, cystitis, etc., a decrease in tight junction protein in the urothelium in contact with urine occurred, which increased the permeability of the bladder wall to introduce the harmful substances into the tissue, and caused the death of the urothelium serving as a barrier, and an increase in inflammatory response in the bladder. In order to determine what effect the compound YJ102 of the present disclosure had on these pathological processes, the expression of tight junction proteins ZO-1 and occludin was confirmed by Western blot analysis and immunofluorescence staining, and the introduction of neutrophils and macrophages into the bladder was confirmed by immunofluorescence staining. Specifically, the cut bladder tissue sections were frozen in liquid nitrogen, ground in a mortar and pestle to be completely lysed, and homogenized by adding Lysis Buffer [50 mM Tris-HCl (pH 7.4), 150 mM NaCl, 2 mM MgCl2, 0.1% NP40]. The homogenized tissue sections were transferred to a microcentrifuge tube, rock at 4°C for 20 minutes, and then centrifuged at 25,000 × g for 10 minutes. The supernatant was transferred to a new microcentrifuge, the protein concentrations were measured using a BCA kit, and then samples for Western blot were prepared by adding a 1X sample buffer and boiling for 5 minutes. For Western blot, the same amounts of proteins were loaded onto SDS-PAGE, electrophored, and then transferred to a nitrocellulose membrane, reacted with primary antibodies Occludin (Invitrogen), ZO-1 (Invitrogen), ED-1 (Serotec), and β-actin (Sigma), and then blotted with secondary antibodies. In addition, for immunofluorescence staining, 10 µm-thick bladder tissue sections were treated with primary antibodies ZO-1 (Invitrogen), Occludin (Invitrogen), MPO (DAKO), and ED-1 (Serotec), respectively, and reacted according to a manufacturer's protocol, and then color-developed with secondary antibodies (Jackson immunoresearh).

[1] = test system: IMQ psoriasis animal model; experiment: Spleen hypertrophy in IMQ psoriasis animal model; type: in vivo, C57BL/6 mouse; settings: Day 6, vs Vehicle group
Method: Psoriasis caused by excessive production of skin cells was a chronic skin disease associated with various factors, including autoimmune diseases, and its symptoms included red and thickened skin and abnormally occurring scaling. […] Specifically, the back region of a C57BL/6 mouse (male, 18 to 20 g, 8 weeks) (Daehan Biolink, Eumseong, Korea) was shaved to remove hair, and then applied with IMQ cream (83 mg/day) (5%) for consecutive 5 days from Day 0 to Day 4 to induce psoriasis-like skin inflammation, and a normal control mouse (Sham) was applied with Vaseline cream (FIG. 16A).
The spleen hypertrophy occurred in mice induced with psoriasis, the longitudinal diameter of the spleen in psoriasis patients was increased compared to that of non-psoriasis patients, and a correlation between the disease duration and the spleen diameter was reported. Therefore, on Day 6, the spleen of the mouse in each group was extracted and weighed to determine the degree of spleen hypertrophy.

[2] = day 1 after spinal cord injury, H&E
[3] = day 1 after spinal cord injury (SCI 1d), Western blot

## CCc1ccc(N(C(=O)COC)c2nc3cc(Cl)ccc3o2)cc1 [YJ102]
Bladder wall; after spinal cord injury, Masson's trichrome
  collagen content in the muscle: maintained at a level almost similar to that of the normal group
Bladder wall; [2]
  thickness of the lamina propria: significantly reduced
  thickness of the muscle layer: significantly reduced
  thickness of the urothelium layer: significantly reduced
Inflammatory factors
  expression of inflammatory factors: significantly reduced
TRPM7
  expression of TRPM7: inhibited
Urothelial cells; Western blot
  reduction of the level of UPIII (urothelial loss): inhibited
Urothelial cells; cleaved caspase-3 Western blot
  caspase-3 activation: inhibited
Urothelial cells; vs Vehicle group
  number of TUNEL-positive cells in the urothelium: significantly reduced
ZO-1 and occludin; after spinal cord injury, immunofluorescence staining
  reduction in Occludin in the urothelium: inhibited
ZO-1 and occludin; [3]
  reduction of the amount of Occludin: significantly inhibited
  reduction of the amount of ZO-1: significantly inhibited
[1]
  size of the spleen: significantly reduced
  weight of the spleen: significantly reduced
